Measured values: PubChem BioAssay AID330 (DTP/NCI, 2004)
Where “and” joins values, the source holds several entries; their conditions need not be identical. Equal entries are not always repeated. Inconclusive results and toxic doses are left out. Rule for the calls: active = survival T/C of 150% or more; inactive = T/C below 125% in these data. Square brackets hold non-standard residues; d marks the D form. Peptide text beside a SMILES is read from it. ξ: configuration not given here. ξT = CC(O)C(N)C(=O)O

Tested on: P388 leukemia ip, CD2F1 mice, survival T/C
Assay: NCI In Vivo Anticancer Drug Screen. Data for tumor model P388 Leukemia (intraperitoneal) in CD2F1 (CDF1) mice
Conditions: endpoint: median survival time, higher = longer survival
Outline: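 Mice carrying the transplanted tumor received test compound or vehicle. Survival was recorded in each group, and the value is the treated-group measurement divided by that of the vehicle-treated control group.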

[1] = dose: 50.0 mg/kg/injection, schedule: Q01DX009 (ip), vehicle: saline with Tween-80
[2] = dose: 100.0 mg/kg/injection, schedule: Q01DX009 (ip), vehicle: saline with Tween-80
[3] = dose: 200.0 mg/kg/injection, schedule: Q01DX009 (ip), vehicle: saline with Tween-80
[4] = dose: 50.0 mg/kg/injection, schedule: Q01DX009 (ip), vehicle: saline
[5] = dose: 100.0 mg/kg/injection, schedule: Q01DX009 (ip), vehicle: saline
[6] = dose: 200.0 mg/kg/injection, schedule: Q01DX009 (ip), vehicle: saline
[7] = dose: 50.0 mg/kg/injection, schedule: Q01DX005 (ip), vehicle: Klucel (hydroxypropylcellulose) (HPC)
[8] = dose: 100.0 mg/kg/injection, schedule: Q01DX005 (ip), vehicle: Klucel (hydroxypropylcellulose) (HPC)
[9] = dose: 50.0 mg/kg/injection, schedule: Q01DX005 (ip), vehicle: saline with Tween-80
[10] = dose: 100.0 mg/kg/injection, schedule: Q01DX005 (ip), vehicle: saline with Tween-80
[11] = dose: 200.0 mg/kg/injection, schedule: Q01DX005 (ip), vehicle: saline with Tween-80
[12] = dose: 200.0 mg/kg/injection, schedule: Q01DX005 (ip), vehicle: Klucel (hydroxypropylcellulose) (HPC)
[13] = dose: 50.0 mg/kg/injection, schedule: Q01DX009 (ip), vehicle: Klucel (hydroxypropylcellulose) (HPC)

Measured: T/C

Cc1c(C(=N)C(C#N)C#N)c(=N)oc2c1ccc1ccccc12
inactive: dose: 6.25 mg/kg/injection, schedule: Q01DX009 (ip), vehicle: saline with Tween-80 94 % of control and 97 % of control | dose: 12.5 mg/kg/injection, schedule: Q01DX009 (ip), vehicle: saline with Tween-80 86 % of control and 96 % of control | dose: 25.0 mg/kg/injection, schedule: Q01DX009 (ip), vehicle: saline with Tween-80 115 % of control and 87 % of control and 95 % of control | [1] 123 % of control and 94 % of control (2×) | [2] 100 % of control and 92 % of control | [3] 116 % of control

NC(=O)CC1Cc2ccc3ccc(O)cc3c2C1=O (stereo unspecified)
inactive: dose: 12.5 mg/kg/injection, schedule: Q01DX009 (ip), vehicle: distilled water + Tween-80 100 % of control | dose: 25.0 mg/kg/injection, schedule: Q01DX009 (ip), vehicle: distilled water + Tween-80 97 % of control | dose: 50.0 mg/kg/injection, schedule: Q01DX009 (ip), vehicle: distilled water + Tween-80 93 % of control | dose: 100.0 mg/kg/injection, schedule: Q01DX009 (ip), vehicle: distilled water + Tween-80 94 % of control | dose: 200.0 mg/kg/injection, schedule: Q01DX009 (ip), vehicle: distilled water + Tween-80 95 % of control

FS(F)(F)(F)(F)c1cccc(NC(=S)SCc2ccc(Cl)cc2)c1
inactive: [4] 100 % of control | [5] 101 % of control and 95 % of control | [6] 107 % of control and 118 % of control

CC(O)C(N)C(=O)NCC(=O)NCC(=O)O (stereo not drawn) (H-[ξT]-Gly-Gly-OH)
inactive: dose: 50.0 mg/kg/injection, schedule: Q01DX005 (ip), vehicle: saline 101 % of control | dose: 100.0 mg/kg/injection, schedule: Q01DX005 (ip), vehicle: saline 101 % of control | dose: 200.0 mg/kg/injection, schedule: Q01DX005 (ip), vehicle: saline 104 % of control

C=C1CC[C@H]2C(C)=CC[C@@H]3[C@H](OC(=O)[C@H]3COC)[C@@H]12
inactive: dose: 100.0 mg/kg/injection, schedule: Q01DX001 (ip), vehicle: saline 107 % of control | dose: 200.0 mg/kg/injection, schedule: Q01DX001 (ip), vehicle: saline 97 % of control | dose: 400.0 mg/kg/injection, schedule: Q01DX001 (ip), vehicle: saline 103 % of control

CCCCN(CCCC)C1CCC(Nc2ccnc3cc(Cl)ccc23)CC1 (stereo unspecified)
inactive: [7] 98 % of control | [8] 95 % of control

CCOC(=O)CCC1(C(=O)OC)C(=O)CCCCCCCC1C(=O)OC (stereo unspecified)
inactive: [9] 101 % of control | [10] 98 % of control | [11] 94 % of control

Cn1c(=S)sc2nc3ccccc3n2c1=S
inactive: dose: 30.0 mg/kg/injection, schedule: Q01DX005 (ip), vehicle: saline with Tween-80 117 % of control | dose: 60.0 mg/kg/injection, schedule: Q01DX005 (ip), vehicle: saline with Tween-80 121 % of control | dose: 120.0 mg/kg/injection, schedule: Q01DX005 (ip), vehicle: saline with Tween-80 108 % of control

CCCCN=C1Nc2nc(=NCCCC)nc3c(Br)cc(Br)c(n23)N1
inactive: dose: 0.18 mg/kg/injection, schedule: Q01DX005 (ip), vehicle: Klucel (hydroxypropylcellulose) (HPC) 101 % of control | dose: 0.37 mg/kg/injection, schedule: Q01DX005 (ip), vehicle: Klucel (hydroxypropylcellulose) (HPC) 97 % of control | dose: 0.75 mg/kg/injection, schedule: Q01DX005 (ip), vehicle: Klucel (hydroxypropylcellulose) (HPC) 94 % of control | dose: 30.0 mg/kg/injection, schedule: Q01DX005 (ip), vehicle: Klucel (hydroxypropylcellulose) (HPC) 86 % of control | dose: 60.0 mg/kg/injection, schedule: Q01DX005 (ip), vehicle: Klucel (hydroxypropylcellulose) (HPC) 87 % of control and 89 % of control

CCN(CC)C(=S)Sc1nsc(SC(=S)N(CC)CC)c1C#N
inactive: [1] 94 % of control | [2] 94 % of control | [3] 94 % of control

CC1CCCCN1C(=O)C(c1ccccc1)(c1ccccc1)c1ccccc1 (stereo unspecified)
inactive: [7] 99 % of control | [8] 99 % of control | [12] 93 % of control

CC(/C=N\N=C(N)N)=N/NC(N)=O
inactive: [4] 92 % of control | [5] 108 % of control | [6] 115 % of control

NC(=O)c1sc(SCc2ccccc2)c(-[n+]2ccccc2)c1N
inactive: dose: 25.0 mg/kg/injection, schedule: Q04DX002 (ip), vehicle: saline with Tween-80 105 % of control | dose: 50.0 mg/kg/injection, schedule: Q04DX002 (ip), vehicle: saline with Tween-80 105 % of control

CCOC(=O)c1cnc2cc(C)cc(C)c2c1Nc1ccc2c(c1)OCO2
inactive: dose: 60.0 mg/kg/injection, schedule: Q01DX005 (ip), vehicle: Klucel + Tween-80 100 % of control | dose: 120.0 mg/kg/injection, schedule: Q01DX005 (ip), vehicle: Klucel + Tween-80 92 % of control | dose: 240.0 mg/kg/injection, schedule: Q01DX005 (ip), vehicle: Klucel + Tween-80 87 % of control

ClC(Cl)Cl
inactive: dose: 0.25 % in 0.5 ml injection vol, schedule: Q01DX009 (ip), vehicle: water 100 % of control | dose: 0.5 % in 0.5 ml injection vol, schedule: Q01DX009 (ip), vehicle: water 96 % of control | dose: 1.0 % in 0.5 ml injection vol, schedule: Q01DX009 (ip), vehicle: water 100 % of control

Cc1nc2ccccc2c(=O)n1-c1ccc(-c2nnc(Sc3nnc(-c4ccc(-n5c(C)nc6ccccc6c5=O)cc4)n3-c3ccccc3)n2-c2ccccc2)cc1
inactive: [7] 102 % of control | [8] 101 % of control | [12] 90 % of control

O=c1[nH]nc(OCCO)c2ccccc12
inactive: [7] 100 % of control | [8] 98 % of control | [12] 99 % of control

CCO/C(=N/S(C)(=O)=O)NO
inactive: [7] 102 % of control | [8] 106 % of control | [12] 102 % of control

CC(=O)OC1OC(COS(C)(=O)=O)C(OC(C)=O)C(OS(C)(=O)=O)C1OC(C)=O (stereo unspecified)
inactive: [4] 92 % of control | [5] 118 % of control | dose: 400.0 mg/kg/injection, schedule: Q01DX009 (ip), vehicle: saline 88 % of control

CC1(C)C(N)C(C)(C)C1N (stereo unspecified)
inactive: [4] 94 % of control | [5] 97 % of control | [6] 86 % of control

Nc1nc(Cl)c(Cl)nc1N
inactive: [1] 110 % of control | dose: 50.0 mg/kg/injection, schedule: Q04DX003 (ip), vehicle: saline with Tween-80 100 % of control | [2] 105 % of control | dose: 100.0 mg/kg/injection, schedule: Q04DX003 (ip), vehicle: saline with Tween-80 100 % of control | [3] 110 % of control | dose: 200.0 mg/kg/injection, schedule: Q04DX003 (ip), vehicle: saline with Tween-80 95 % of control

NCCCCC(C(=O)NC(CCC(=O)OCc1ccccc1)C(=O)Oc1ccc([N+](=O)[O-])cc1)N(C(=O)OCc1ccccc1)C(=O)OCc1ccccc1 (stereo unspecified)
inactive: [9] 100 % of control | [10] 100 % of control | [11] 92 % of control

COc1ccc(C[n+]2ccc3ccccc3c2)cc1
inactive: dose: 15.0 mg/kg/injection, schedule: Q01DX005 (ip), vehicle: saline 95 % of control | dose: 30.0 mg/kg/injection, schedule: Q01DX005 (ip), vehicle: saline 95 % of control | dose: 60.0 mg/kg/injection, schedule: Q01DX005 (ip), vehicle: saline 106 % of control and 111 % of control

COc1c2ccoc2nc2c(OC)c3c(cc12)OCO3
inactive: dose: 6.25 mg/kg/injection, schedule: Q01DX009 (ip), vehicle: Klucel (hydroxypropylcellulose) (HPC) 105 % of control | dose: 12.5 mg/kg/injection, schedule: Q01DX009 (ip), vehicle: Klucel (hydroxypropylcellulose) (HPC) 99 % of control | dose: 25.0 mg/kg/injection, schedule: Q01DX009 (ip), vehicle: Klucel (hydroxypropylcellulose) (HPC) 94 % of control | [13] 94 % of control

CC(C)SC=O
inactive: [13] 100 % of control | dose: 100.0 mg/kg/injection, schedule: Q01DX009 (ip), vehicle: Klucel (hydroxypropylcellulose) (HPC) 107 % of control | dose: 200.0 mg/kg/injection, schedule: Q01DX009 (ip), vehicle: Klucel (hydroxypropylcellulose) (HPC) 106 % of control

CCCCCCCC[N+]1(CC)CCCCC1
inactive: dose: 3.12 mg/kg/injection, schedule: Q01DX009 (ip), vehicle: saline 104 % of control | dose: 6.25 mg/kg/injection, schedule: Q01DX009 (ip), vehicle: saline 109 % of control | dose: 12.5 mg/kg/injection, schedule: Q01DX009 (ip), vehicle: saline 109 % of control

CC(=O)C(O)N1C(=O)C=CC1=O (stereo unspecified)
inactive: dose: 2.5 mg/kg/injection, schedule: Q01DX009 (ip), vehicle: saline with Tween-80 86 % of control | dose: 2.5 mg/kg/injection, schedule: Q04DX003 (ip), vehicle: saline 100 % of control | dose: 5.0 mg/kg/injection, schedule: Q04DX003 (ip), vehicle: saline 95 % of control | dose: 10.0 mg/kg/injection, schedule: Q04DX003 (ip), vehicle: saline 100 % of control
